The values below come from US20090093471A1, “Methods of Treating Nervous Disorders” (priority 2005, published 2009).

By Kd is commonly meant the constant that tells how readily two partners part at equilibrium. One may read the LD50 as the dose at which mortality reaches 50%. High values mean lower toxicity, low ones greater toxicity.

The test system of data set [1] is intracellular Aβ 40 and Aβ 42 in swAPP-HEK293 cells. The data set can be described thus: Intracellular (cell-associated) Aβ 40 and Aβ 42 ELISA, swAPP-HEK293 cells. The class given is cell-based, human. The note with it: swAPP-HEK293 cell lysates, normalized to cellular protein; qualitative. (An ELISA detects its analyte on a solid surface through an enzyme-linked reagent.)

The subject of data set [2] is γ-secretase. The data set is described as follows: γ-Secretase assay, de novo Aβ generation from membranes of compound-treated cells. In kind it is cell-based. The note with it: cells incubated with compound for 16 hours. The method, then:
We implemented a an assay allowing de novo Aβ generation in vitro, using cell membranes as the source of γ-secretase. Preparation of solubilized γ-secretase fractions was performed essentially as described previously (Li, Y. M., Lai, M. T., Xu, M., Huang, Q., DiMuzio-Mower, J., Sardana, M. K., Shi, X. P., Yin, K. C., Shafer, J. A., and Gardell, S. J. (2000) Proc. Natl. Acad. Sci. U.S.A. 97, 6138-6143) with the above modifications. All incubations were performed in the presence of Complete Protease Inhibitor Cocktail. Confluent plates swAPP-HEK293 cells were lysed in 1 ml of ice-cold CelLytic-M (Sigma) and incubated 15 minutes at 4° C. on a shaker. Cell debris and nuclei were removed by centrifugation at 1000×g for 15 min at 4° C. […] Solubilized γ-secretase activity was induced at 37° C. for 2 h with or without the indicated treatments and Aβ 40 generated de novo was quantified by ELISA. […]
To test this hypothesis, we used an established γ-secretase assay allowing de novo Aβ generation in vitro, using cell membranes as the source of γ-secretase. Solubilized γ-secretase fractions are activated in a γ-secretase buffer (see experimental procedures) and activity is monitored following either the cleavage of an internally quenched fluorogenic γ-secretase substrate, or endogenous C99 itself. […] C99 cleavage by γ-secretase was measured by de novo Aβ 40 generation. […]

For data set [3] the following is noted: rat, in vivo.
In data set [4] the test system is brain Aβ 40 and Aβ 42.
Data set [5] concerns the target Cdc42 (Homo sapiens, UniProt P60953). The note with it: Gao et al. 2004; Picard et al., submitted; cited from earlier work.
The target of data set [6] is RhoA (Homo sapiens, UniProt P61586). As to conditions: Gao et al. 2004; Picard et al., submitted; cited from earlier work.
Chain of RhoA (P61586 whole entry, species assumed): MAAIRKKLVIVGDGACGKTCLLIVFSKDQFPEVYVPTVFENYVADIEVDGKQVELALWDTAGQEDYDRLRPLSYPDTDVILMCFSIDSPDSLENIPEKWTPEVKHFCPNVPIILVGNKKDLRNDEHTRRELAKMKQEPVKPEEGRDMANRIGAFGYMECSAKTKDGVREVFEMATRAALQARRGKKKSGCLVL
In data set [7] the target is Recombinant Rac2 (Homo sapiens, UniProt P15153). The data set can be described thus: biochemical.
Data set [8] has as its target Recombinant Rac3 (Homo sapiens, UniProt P60763). The data set is described as follows: biochemical.
The nature of data set [9]: Acute toxicity and tolerability in rat. As to conditions: in vivo.

Chain of Cdc42 (P60953 whole entry, species assumed): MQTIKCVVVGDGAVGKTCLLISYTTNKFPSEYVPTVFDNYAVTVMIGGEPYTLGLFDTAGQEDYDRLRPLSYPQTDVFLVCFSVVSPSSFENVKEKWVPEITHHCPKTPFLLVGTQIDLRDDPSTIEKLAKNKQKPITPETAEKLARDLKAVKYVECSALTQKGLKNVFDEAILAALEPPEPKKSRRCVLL

Consider `Cl.Cl.O=c1cc(CN2CCOCC2)occ1OCCCCCSc1ccnc2cc(C(F)(F)F)ccc12` [compound 38, 5-(5-(7-(Trifluoromethyl)quinolin-4-ylthio)pentyloxy)-2-(morpholinomethyl)-4H-pyran-4-one dihydrochloride], for which the “Aβ 40 and Aβ 42 intracellular levels” value in data set [1] is “dose-dependent decrease”. In addition, the “de novo Aβ production from C99 (γ-secretase activity)” value in data set [2] is on record as “dose-dependent reduction”. In data set [3], the tolerability entry is listed as “good tolerability”. The “decrease in Aβ 42 levels” value in data set [4] (guinea pig, 40 mg/kg per day i.p., 15 days, just below significance) is on record as 23.6%. Further, the “lowering of brain Aβ 40” value in data set [4] (guinea pig, 40 mg/kg per day i.p., 15 days, p<0.05 Wilcoxon) was determined as 37%. Further, in data set [4] (summary statement), the “reduction in Aβ levels in vivo” value is listed as about 30%. In addition, the “C83 and C99 levels” value in [4] (treated guinea pigs) is recorded as “No significant changes”. For the same molecule, the “full-length APP levels” value in [4] (treated guinea pigs) was “no change”. Besides, the “activity on / interaction with Cdc42” value in [5] is “selective over cdc42 and RhoA”. In addition, the “activity on / interaction with RhoA” value in data set [6] was “selective over cdc42 and RhoA”. Besides, the Kd in [7] came out at 60 nM; in data set [8], 270 nM. For the same molecule, the LD50 was 50 mg/kg in [9] (iv) and over 1000 mg/kg in data set [9] (po).
